# From patent US11925629B2, “Heterocyclic inhibitors of ERK1 and ERK2 and their use in the treatment of cancer” (Asana Biosciences, LLC, priority 2015, dated 2024)
# Columns and labels:
# Type in all cases: cell-based, human
# [1] = test system: HT-29 (colorectal carcinoma, B-RafV600E) cells; assay: Cell proliferation (Alamar Blue) assay, HT-29; details: Homo sapiens, HT-29, HT29 cells
# Outline: (§1)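 Cells seeded at 5000/well and allowed 16-24 h at 37° C./5% CO2, then exposed to compound (typically 0.0005-10 uM, 3-fold serial dilutions) for 72 h. Viability was read by Alamar Blue fluorescence (ex 540/em 590 nm) after 1-3 h. IC50 came from a variable-slope sigmoidal dose-response fit.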
# [2] = test system: HCT116 (colorectal carcinoma, K Ras G13D) cells; assay: Cell proliferation (Alamar Blue) assay, HCT116; details: Homo sapiens, HCT-116, HCT116 cells
# Outline: as §1
# [3] = test system: phosphorylation of RSK1(S380) (the downstream target of ERK1/2); assay: Phospho-RSK1(S380) ELISA assay in HT-29 cells; details: Homo sapiens, HT-29, HT29 cells; read-out: Mechanistic Cell Assay RSK1 Phos HT29 IC50
# Outline: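 HT-29 colorectal carcinoma cells (B-RafV600E), plated overnight at 37° C./5% CO2, were treated with compound dilutions for 2 h. Lysates were analysed by phospho-RSK1(Ser380) sandwich ELISA with absorbance at 450 nm. IC50 came from a sigmoidal variable-slope dose-response fit.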
Structure (SMILES),IC50 [1] [nM],IC50 [2] [nM],IC50 [3] [nM]
"Cc1cnc(NC2CCOCC2)nc1-n1cnc(C(=O)NCc2cccc(Cl)c2F)c1 [Example 309, N-(3-chloro-2-fluorobenzyl)-1-(5-methyl-2-((tetrahydro-2H-pyran-4-yl)amino)pyrimidin-4-yl)-1H-imidazole-4-carboxamide]",250 to 500,500 to 2500,500 to 2500
"Cc1cnc(N[C@H]2CCOC2)nc1-n1cnc(C(=O)NCc2cccc(C#N)c2)c1 [Example 310, (S)-N-(3-cyanobenzyl)-1-(5-methyl-2-((tetrahydrofuran-3-yl)amino)pyrimidin-4-yl)-1H-imidazole-4-carboxamide]",> 2500,> 2500,> 2500
"Cc1cnc(N[C@H]2CCOC2)nc1-n1cnc(C(=O)NCc2cccc(Cl)c2)c1 [Example 318, (S)-N-(3-chlorobenzyl)-1-(5-methyl-2-((tetrahydrofuran-3-yl)amino)pyrimidin-4-yl)-1H-imidazole-4-carboxamide]",500 to 2500,> 2500,500 to 2500
"Cc1cnc(NC2CCOCC2)nc1-n1cnc(C(=O)N[C@H](CN(C)C)c2cccc(Cl)c2)c1 [Example 320, (S)-N-(1-(3-chlorophenyl)-2-(dimethylamino)ethyl)-1-(5-methyl-2-((tetrahydro-2H-pyran-4-yl)amino)pyrimidin-4-yl)-1H-imidazole-4-carboxamide]",250 to 500,500 to 2500,250 to 500
"CNC[C@@H](NC(=O)c1cn(-c2nc(NC3CCOCC3)ncc2C)cn1)c1cccc(Cl)c1 [Example 326, (S)-N-(1-(3-chlorophenyl)-2-(methylamino)ethyl)-1-(5-methyl-2-((tetrahydro-2H-pyran-4-yl)amino)pyrimidin-4-yl)-1H-imidazole-4-carboxamide]",≤ 100,≤ 100,≤ 100
"Cc1cnc(NC2CCOCC2)nc1-n1cnc(C(=O)NCc2nc(Cl)sc2C)c1 [Example 328, N-((2-chloro-5-methylthiazol-4-yl)methyl)-1-(5-methyl-2-((tetrahydro-2H-pyran-4-yl)amino)pyrimidin-4-yl)-1H-imidazole-4-carboxamide]",250 to 500,> 2500,250 to 500
"Cc1cnc(Nc2ccc(F)cc2Cl)nc1-n1cnc(C(=O)NCc2cccc(Cl)c2CO)c1 [Example 329, N-(3-chloro-2-(hydroxymethyl)benzyl)-1-(2-((2-chloro-4-fluorophenyl)amino)-5-methylpyrimidin-4-yl)-1H-imidazole-4-carboxamide]",≤ 100,250 to 500,≤ 100
"Cc1cnc(NC2CCOCC2)nc1-n1cnc(C(=O)NCc2ccc(Cl)c(CO)c2)c1 [Example 330, N-(4-chloro-3-(hydroxymethyl)benzyl)-1-(5-methyl-2-((tetrahydro-2H-pyran-4-yl)amino)pyrimidin-4-yl)-1H-imidazole-4-carboxamide]",500 to 2500,> 2500,250 to 500
"Cc1cnc(N[C@H]2CCOC2)nc1-n1cnc(C(=O)NCc2cccc(Cl)c2C)c1 [Example 331, (S)-N-(3-chloro-2-methylbenzyl)-1-(5-methyl-2-((tetrahydrofuran-3-yl)amino)pyrimidin-4-yl)-1H-imidazole-4-carboxamide]",500 to 2500,500 to 2500,≤ 100
"Cc1cnc(Nc2ccc3c(c2)OC(F)(F)O3)nc1-n1cnc(C(=O)NCc2cccc(Cl)c2CO)c1 [Example 332, N-(3-chloro-2-(hydroxymethyl)benzyl)-1-(2-((2,2-difluorobenzo[d][1,3]dioxol-5-yl)amino)-5-methylpyrimidin-4-yl)-1H-imidazole-4-carboxamide]",500 to 2500,250 to 500,≤ 100
"Cc1cnc(NC2CCOCC2)nc1-n1cnc(C(=O)N[C@H](CNCCO)c2cccc(Cl)c2)c1 [Example 333, (S)-N-(1-(3-chlorophenyl)-2-((2-hydroxyethyl)amino)ethyl)-1-(5-methyl-2-((tetrahydro-2H-pyran-4-yl)amino)pyrimidin-4-yl)-1H-imidazole-4-carboxamide]",≤ 100,≤ 100,≤ 100
"Cc1cnc(NC2CCOCC2)nc1-n1cnc(C(=O)NCc2cccc(Cl)c2CCO)c1 [Example 334, N-(3-chloro-2-hydroxyethylbenzyl)-1-(5-methyl-2-((tetrahydro-2H-pyran-4-yl)amino)pyrimidin-4-yl)-1H-imidazole-4-carboxamide]",≤ 100,≤ 100,≤ 100
"Cc1cnc(NC2CCOCC2)nc1-n1cnc(C(=O)NCc2cccc(CO)c2Cl)c1 [Example 335, N-(2-chloro-3-(hydroxymethyl)benzyl)-1-(5-methyl-2-((tetrahydro-2H-pyran-4-yl)amino)pyrimidin-4-yl)-1H-imidazole-4-carboxamide]",250 to 500,> 2500,100 to 250
"CC[C@H](CO)Nc1ncc(C)c(-n2cnc(C(=O)NCc3cccc(Cl)c3CO)c2)n1 [Example 336, (R)-N-(3-chloro-2-(hydroxymethyl)benzyl)-1-(2-((1-hydroxybutan-2-yl)amino)-5-methylpyrimidin-4-yl)-1H-imidazole-4-carboxamide]",≤ 100,100 to 250,≤ 100
"Cc1cnc(NC2CCOCC2)nc1-n1cnc(C(=O)N[C@H](CNCC(C)(C)C)c2cccc(Cl)c2)c1 [Example 337, (S)-N-(1-(3-chlorophenyl)-2-(neopentylamino)ethyl)-1-(5-methyl-2-((tetrahydro-2H-pyran-4-yl)amino)pyrimidin-4-yl)-1H-imidazole-4-carboxamide]",100 to 250,500 to 2500,100 to 250
"Cc1cnc(N[C@H]2CCOC2)nc1-n1cnc(C(=O)NCc2cccc(CO)c2Cl)c1 [Example 338, (S)-N-(2-chloro-3-(hydroxymethyl)benzyl)-1-(5-methyl-2-((tetrahydrofuran-3-yl)amino)pyrimidin-4-yl)-1H-imidazole-4-carboxamide]",> 2500,500 to 2500,500 to 2500
"Cc1cnc(NC2CCOCC2)nc1-n1cnc(C(=O)N[C@H](CNCC2CC2)c2cccc(Cl)c2)c1 [Example 339, 1-[5-Methyl-2-(tetrahydro-pyran-4-ylamino)-pyrimidin-4-yl]-1H-imidazole-4-carboxylic acid [(S)-1-(3-chloro-phenyl)-2-(cyclopropylmethyl-amino)-ethyl]-amide]",≤ 100,≤ 100,≤ 100
"CC(=O)OCc1c(Cl)cccc1CNC(=O)c1cn(-c2nc(NC3CCOCC3)ncc2C)cn1 [Example 340, 2-chloro-6-((1-(5-methyl-2-((tetrahydro-2H-pyran-4-yl)amino)pyrimidin-4-yl)-1H-imidazole-4-carboxamido)methyl)benzyl acetate]",≤ 100,≤ 100,≤ 100
"Cc1cnc(NC2CCOCC2)nc1-n1cnc(C(=O)NC(C)(C)c2cccc(Cl)c2CO)c1 [Example 341, N-(2-(3-chloro-2-(hydroxymethyl)phenyl)propan-2-yl)-1-(5-methyl-2-((tetrahydro-2H-pyran-4-yl)amino)pyrimidin-4-yl)-1H-imidazole-4-]",500 to 2500,500 to 2500,250 to 500
"CC(=O)OCc1c(Cl)cccc1CNC(=O)c1cn(-c2nc(N[C@H]3CCOC3)ncc2C)cn1 [Example 342, (S)-2-chloro-6-((1-(5-methyl-2-((tetrahydrofuran-3-yl)amino)pyrimidin-4-yl)-1H-imidazole-4-carboxamido)-methyl)benzyl acetate]",≤ 100,≤ 100,100 to 250
"Cc1cnc(NC2CCOCC2)nc1-n1cnc(C(=O)NCc2ccc(Cl)cc2CO)c1 [Example 343, N-(4-chloro-2-hydroxymethylbenzyl)-1-(5-methyl-2-((tetrahydro-2H-pyran-4-yl)amino)-pyrimidin-4-yl)-1H-imidazole-4-carboxamide]",250 to 500,250 to 500,100 to 250
CNCCNC[C@@H](NC(=O)c1cn(-c2nc(NC3CCOCC3)ncc2C)cn1)c1cccc(Cl)c1 [Example 345],500 to 2500,500 to 2500,> 2500
